The values that follow come from patent US4788063A, “Drug delivery system” (priority 1984, dated 1988).

In one test the test system is memory disorders. The settings on record: SDAT patients, intravenous infusion at a rate of 3.4-14 μg/kg. hr; cited from earlier work.
Test [1] relates to Whole blood cholinesterase. Nature of the test: whole blood cholinesterase after dermal application or injection in guinea pigs. The test is classed as in vivo. The note with it: injection, guinea pigs (FIG. 2). How it is done:
(§1) Laboratory animal species used throughout this study consisted of albino guinea pigs of either sex of a local strain, (Dunkin-Hadley origin), weighing between 300-400 g, and female pigs of the large White and Lundrace strain, 8-12 weeks of age, weighing 8-14 kg.
(§2) At 30 minutes prior to dermal application of test solutions, the hair at the test sites was closely clipped. Only animals in which the skin at the test sites appeared grossly normal and was free of bites, scratches or bruises, were selected for the study.
(§3) Treatment solutions for dermal application were freshly prepared and applied to a pre-determined area of a commercially available pad, (micropad dressing 3M No. 1610, U.S. Pat. No. 3,285,245) which in turn was secured to dorsal test-sites by an adhesive bandage, serving at the same time as an occlusive dressing. […] Intervals between bleedings were 2 hours in guinea pigs, and 30 minutes in pigs.
(§4) Cholinesterase Determinations: Whole blood cholinesterase activity was determined by the method of Ellman [G.L. Ellman et al, Biochem. Pharmacol. 7, 83 (1961)], or by that described by Johnson and Russell [C.D. Johnson and R. L. Russell, Anal Biochem 64, 229 (1975)]. Data obtained in experimental animals (guinea pigs and pigs) show a remarkable prolonging of the duration of action of the dermally applied drug when compared with systemic administration.

Test [2] relates to Whole blood cholinesterase. Nature of the test: whole blood cholinesterase after dermal application or intramuscular injection in pigs. Format: in vivo. The note with it: intramuscular injection, pigs (FIG. 1). How it is done:
as §1, §2, §3, §4

As to `CNC(=O)Oc1ccc2c(c1)[C@]1(C)CCN(C)[C@@H]1N2C` [physostigmine], the “effect on memory disorders” value in the test with memory disorders is on record as “improvement in memory disorders”. For the same compound, the “duration of the effect” value in test [1] and in test [2] was 2 to 3 h throughout.
